What was measured:
α4β7 integrin = α4β7 integrin (Homo sapiens (Human), UniProt P13612+P26010); experiment: Integrin Adhesion Assay: Protocol 1 (MAdCAM-coated plate, RPMI-8866 cells, CellTiter GLO readout); format: cell-based; conditions: integrin adhesion assay; determined by at least one of the assays described (protocol not specified)
Outline: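 RPMI-8866 cells (2×10^6 per mL) added with compounds (1% DMSO) to MAdCAM-coated wells blocked in HEPES/NaCl buffer with 1 mM MnCl2, 0.1 mM CaCl2, 1% BSA; 1 h at 37° C, 5% CO2. After four washes, bound cells read by CellTiter GLO luminescence; % inhibition vs DMSO and control wells, 4-parameter fit.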

α4β1 integrin = α4β1 integrin (Homo sapiens (Human), UniProt P05556+P13612); experiment: Integrin Adhesion Assay: Protocol 2 (VCAM-coated plate, Jurkat cells, CellTiter GLO readout); format: cell-based; conditions: determined by at least one of the assays described (protocol not specified)
α4β1 integrin, sequence (P13612 34-1032): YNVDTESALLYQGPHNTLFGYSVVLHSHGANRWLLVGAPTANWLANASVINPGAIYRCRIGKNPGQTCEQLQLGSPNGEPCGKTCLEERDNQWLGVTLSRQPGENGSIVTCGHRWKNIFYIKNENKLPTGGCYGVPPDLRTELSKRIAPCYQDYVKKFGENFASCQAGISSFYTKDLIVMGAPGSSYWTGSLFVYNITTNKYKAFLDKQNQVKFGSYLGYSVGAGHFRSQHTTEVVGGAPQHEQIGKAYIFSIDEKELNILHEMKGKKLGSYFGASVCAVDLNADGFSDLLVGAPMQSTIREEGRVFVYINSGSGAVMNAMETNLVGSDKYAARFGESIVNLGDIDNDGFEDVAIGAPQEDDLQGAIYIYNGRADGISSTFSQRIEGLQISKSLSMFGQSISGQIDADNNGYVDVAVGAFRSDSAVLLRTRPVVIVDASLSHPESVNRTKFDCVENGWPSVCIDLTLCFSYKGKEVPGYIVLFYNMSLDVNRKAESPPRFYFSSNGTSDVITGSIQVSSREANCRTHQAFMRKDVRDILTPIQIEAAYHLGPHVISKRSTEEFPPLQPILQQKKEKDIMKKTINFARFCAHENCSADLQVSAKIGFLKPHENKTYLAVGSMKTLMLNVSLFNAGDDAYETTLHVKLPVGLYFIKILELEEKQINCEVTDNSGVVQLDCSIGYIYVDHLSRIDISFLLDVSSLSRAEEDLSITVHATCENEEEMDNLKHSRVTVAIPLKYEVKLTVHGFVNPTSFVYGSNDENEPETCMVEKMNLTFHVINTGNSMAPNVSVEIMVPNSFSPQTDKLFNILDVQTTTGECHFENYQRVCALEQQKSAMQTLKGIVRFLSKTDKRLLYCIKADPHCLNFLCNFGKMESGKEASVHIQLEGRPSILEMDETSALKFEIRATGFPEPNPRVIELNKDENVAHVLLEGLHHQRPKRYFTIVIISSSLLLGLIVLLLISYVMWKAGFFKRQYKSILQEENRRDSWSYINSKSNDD
α4β1 integrin, sequence (P05556 21-798): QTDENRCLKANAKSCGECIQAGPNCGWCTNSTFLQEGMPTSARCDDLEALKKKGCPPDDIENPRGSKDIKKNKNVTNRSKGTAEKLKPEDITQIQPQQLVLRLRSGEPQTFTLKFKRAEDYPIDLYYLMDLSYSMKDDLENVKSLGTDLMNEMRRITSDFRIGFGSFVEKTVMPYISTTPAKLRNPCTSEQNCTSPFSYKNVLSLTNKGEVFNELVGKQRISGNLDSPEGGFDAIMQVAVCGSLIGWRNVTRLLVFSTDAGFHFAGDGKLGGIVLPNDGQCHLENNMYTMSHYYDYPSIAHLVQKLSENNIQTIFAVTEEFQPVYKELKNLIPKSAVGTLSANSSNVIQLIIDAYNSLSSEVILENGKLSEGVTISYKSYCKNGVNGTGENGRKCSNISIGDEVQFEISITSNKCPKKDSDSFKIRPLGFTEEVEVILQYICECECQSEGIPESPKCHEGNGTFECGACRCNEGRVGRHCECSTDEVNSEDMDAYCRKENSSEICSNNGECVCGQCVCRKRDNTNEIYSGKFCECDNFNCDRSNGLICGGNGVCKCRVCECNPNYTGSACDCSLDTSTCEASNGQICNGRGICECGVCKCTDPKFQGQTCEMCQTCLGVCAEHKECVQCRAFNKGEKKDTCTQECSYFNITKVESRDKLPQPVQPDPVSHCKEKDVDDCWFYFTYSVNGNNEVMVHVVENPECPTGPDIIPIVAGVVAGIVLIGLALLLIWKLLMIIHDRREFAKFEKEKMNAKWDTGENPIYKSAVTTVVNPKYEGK
Outline: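 Jurkat cells (2×10^6 per mL) adhered to VCAM-coated (0.1 ug/well), BSA-blocked wells with compound (1% DMSO) for 1 h at 37° C in 10 mM HEPES, 150 mM NaCl, 1 mM MnCl2, 0.1 mM CaCl2. After four washes, bound cells were quantified by CellTiter-Glo luminescence. Percent inhibition versus DMSO and control-compound wells was fitted to a 4-parameter curve.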

α4β7 integrin, sequence (P13612 34-1032): as the sequence (P13612 34-1032) above
α4β7 integrin, sequence (P26010 20-798): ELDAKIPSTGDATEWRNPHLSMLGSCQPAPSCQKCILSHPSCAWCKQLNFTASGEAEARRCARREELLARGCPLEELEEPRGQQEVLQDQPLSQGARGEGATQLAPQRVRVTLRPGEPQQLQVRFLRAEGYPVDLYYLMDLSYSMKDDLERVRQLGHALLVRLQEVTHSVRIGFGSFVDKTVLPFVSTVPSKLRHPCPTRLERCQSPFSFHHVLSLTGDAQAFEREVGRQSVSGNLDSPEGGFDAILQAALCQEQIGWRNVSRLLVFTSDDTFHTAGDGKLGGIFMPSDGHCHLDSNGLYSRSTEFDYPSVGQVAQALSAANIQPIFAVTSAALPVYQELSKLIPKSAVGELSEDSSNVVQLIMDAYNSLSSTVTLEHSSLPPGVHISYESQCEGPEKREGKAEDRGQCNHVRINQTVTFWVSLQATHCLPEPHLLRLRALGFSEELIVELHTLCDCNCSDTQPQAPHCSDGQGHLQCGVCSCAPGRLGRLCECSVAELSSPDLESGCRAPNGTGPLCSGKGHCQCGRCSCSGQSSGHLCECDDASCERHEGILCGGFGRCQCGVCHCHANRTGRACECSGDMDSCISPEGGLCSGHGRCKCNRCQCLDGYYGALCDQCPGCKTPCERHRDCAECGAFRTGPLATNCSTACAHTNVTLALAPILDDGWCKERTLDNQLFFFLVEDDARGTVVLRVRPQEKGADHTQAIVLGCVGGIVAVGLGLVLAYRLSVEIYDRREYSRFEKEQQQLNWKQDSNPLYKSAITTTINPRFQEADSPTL

| IC50 (α4β7 integrin) [µM] | IC50 (α4β1 integrin) [µM] | SMILES |
| --- | --- | --- |
| < 0.01 | > 1 | Cc1cc(N2CCOC[C@@H]2C(F)(F)F)cc(F)c1C(=O)N[C@@H](Cc1cccc2c(-c3c(C(F)(F)F)ccn(C)c3=O)nccc12)C(=O)O [Compound 215] |
| < 0.01 | 0.1 to 1 | Cc1cc(C(F)(F)F)c(-c2cccc3c(C[C@H](NC(=O)c4c(F)cc(N5CCOC[C@@H]5C(F)(F)F)cc4F)C(=O)O)cccc23)c(=O)n1C [Compound 113] |
| 0.01 to 0.1 | > 1 | Cn1ccc(=O)n(-c2cccc3c(C[C@H](NC(=O)c4c(F)cc5c(ccn5C)c4F)C(=O)O)cccc23)c1=O [Compound 27] |
| < 0.01 | > 1 | Cn1ccc(C(F)(F)F)c(-c2nccc3c(C[C@H](NC(=O)c4c(Cl)cc(N5CCOC[C@@H]5C(F)(F)F)cc4CN4CCOCC4)C(=O)O)cccc23)c1=O [Compound 225] |
| < 0.01 | 0.1 to 1 | Cn1ccc(=O)n(-c2cccc3c(C[C@H](NC(=O)c4c(F)cc(NCC(F)(F)F)cc4CN4CCOCC4)C(=O)O)cccc23)c1=O [Compound 19] |
| < 0.01 | > 1 | Cn1ccc(C(F)(F)F)c(-c2nccc3c(C[C@H](NC(=O)c4c(F)cc(N5CCOC[C@@H]5C(F)(F)F)cc4F)C(=O)O)cccc23)c1=O [Compound 214] |
| 0.01 to 0.1 | > 1 | CCN1CCC(C)(C(=O)N[C@@H](Cc2cccc3c(-n4c(=O)ccn(C)c4=O)cccc23)C(=O)O)CC1 [Compound 160] |

Continued, compound first:

| SMILES | IC50 (α4β7 integrin) [µM] | IC50 (α4β1 integrin) [µM] |
| --- | --- | --- |
| Cn1ccc(=O)n(-c2cccc3c(C[C@H](NC(=O)C4(Cc5ccc(F)cc5)CCC(F)(F)CC4)C(=O)O)cccc23)c1=O [Compound 64] | > 1 | > 1 |
| Cn1ccc(=O)n(-c2cccc3c(C[C@H](NC(=O)c4c(F)cc(NS(C)(=O)=O)cc4F)C(=O)O)cccc23)c1=O [Compound 111] | < 0.01 | 0.1 to 1 |
| Cn1ccc(=O)n(-c2cccc3c(C[C@H](NC(=O)c4cc(C(=O)N5CCc6ccccc6C5)n(-c5ccccc5)n4)C(=O)O)cccc23)c1=O [Compound 44] | > 1 | > 1 |
| Cn1ccc(=O)n(-c2cccc3c(C[C@H](NC(=O)C(C)(C)CSc4cccc(C(F)(F)F)c4)C(=O)O)cccc23)c1=O [Compound 177] | > 1 | > 1 |
| Cn1c(=O)c2ccccc2n(-c2cccc3c(C[C@H](NC(=O)c4c(F)cccc4F)C(=O)O)cccc23)c1=O [Compound 3] | 0.01 to 0.1 | > 1 |
| Cn1ccc(C(F)(F)F)c(-c2nccc3c(C[C@H](NC(=O)c4c(F)cc(N5CCOCC56CC6)cc4F)C(=O)O)cccc23)c1=O [Compound 217] | < 0.01 | > 1 |
| Cn1ccc(=O)n(-c2cccc3c(C[C@H](NC(=O)C45C[C@H]6C[C@@H](C4)C[C@@H](C5)C6)C(=O)O)cccc23)c1=O [Compound 53] | 0.1 to 1 | > 1 |
| CCCS(=O)(=O)Nc1ccc(F)c(C(=O)N[C@@H](Cc2cccc3c(-n4c(=O)ccn(C)c4=O)cccc23)C(=O)O)c1F [Compound 132] | < 0.01 | 0.1 to 1 |
| Cn1ccc(=O)n(-c2cccc3c(C[C@H](NC(=O)c4c(F)cc5cnn(CC(F)(F)F)c5c4F)C(=O)O)cccc23)c1=O [Compound 16] | < 0.01 | 0.1 to 1 |
| Cc1nccc(F)c1C(=O)N[C@@H](Cc1cccc2c(-n3c(=O)ccn(C)c3=O)cccc12)C(=O)O [Compound 17] | 0.01 to 0.1 | > 1 |
| O=C(N[C@@H](Cc1cccc2c(-c3nccc4ccncc34)cccc12)C(=O)O)c1c(F)cc(CN2CCOCC2)cc1F [Compound 38] | 0.1 to 1 | > 1 |
| Cn1ccc(=O)n(-c2cccc3c(C[C@H](NC(=O)c4c(F)ccc(C(F)(F)F)c4F)C(=O)O)cccc23)c1=O [Compound 29] | 0.01 to 0.1 | > 1 |
| CN1CCN(c2cc(F)c(C(=O)N[C@@H](Cc3cccc4c(-n5c(=O)ccn(C)c5=O)cccc34)C(=O)O)c(F)c2)[C@@H](C(F)(F)F)C1 [Compound 21] | 0.01 to 0.1 | > 1 |
